# Test results: PMC10318897, “The structure of Leptospira interrogans GAPDH sheds light into an immunoevasion factor that can target the anaphylatoxin C5a of innate immunity” (Frontiers in Immunology, 2023)
# Assays:
# LiGAPDH [1] = target: T1, LiGAPDH (Leptospira interrogans, UniProt Q72QM3); experiment: NADH formation at […] nm, nonlinear fit; assay type: biochemical; conditions: substrate inhibition constant, 2 mM NAD+, 40 mM Tris-HCl pH 8.5, 2 mM EDTA, 25 °C
# T1 construct: gene gapA; full-length, N-terminal His6 tag and TEV site (pETM-11), expressed in E. coli Rosetta(DE3); homotetramer; 36648 Da subunit
# T1 sequence (Q72QM3 entry or part of it): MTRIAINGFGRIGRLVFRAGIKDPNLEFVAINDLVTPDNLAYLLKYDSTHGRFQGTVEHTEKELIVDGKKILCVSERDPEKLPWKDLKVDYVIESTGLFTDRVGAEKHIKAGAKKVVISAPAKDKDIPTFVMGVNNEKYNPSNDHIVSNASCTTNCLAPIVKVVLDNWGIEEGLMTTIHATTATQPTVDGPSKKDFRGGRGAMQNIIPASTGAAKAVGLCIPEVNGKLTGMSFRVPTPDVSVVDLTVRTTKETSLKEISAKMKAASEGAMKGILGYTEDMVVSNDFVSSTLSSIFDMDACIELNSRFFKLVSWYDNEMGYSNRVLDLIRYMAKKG
# LiGAPDH [2] = target: T1, LiGAPDH; experiment: NADH formation at […] nm, initial rates, nonlinear fit; assay type: biochemical
# LiGAPDH [3] = target: T1, LiGAPDH; experiment: X-ray crystal structure, […] Å; assay type: binding; conditions: active site, N-terminal Rossmann domain, all eight subunits
structure (smiles),measurement,setting,value
O=P(O)(O)O [Pi],KSS,LiGAPDH [1]; 2 mM G3P,10 ± 1 mM
CCCCCCCCCCCCCCCc1cccc(O)c1C(=O)O [anacardic acid],Ki,LiGAPDH [2],41 ± 2 µM
NC(=O)c1ccc[n+]([C@@H]2O[C@H](COP(=O)(O)OP(=O)(O)OC[C@H]3O[C@@H](n4cnc5c(N)ncnc54)[C@H](O)[C@@H]3O)[C@@H](O)[C@H]2O)c1 [NAD^+],"X-ray crystal structure, 2.37 Å",LiGAPDH [3],The crystal structure corresponds to the holoenzyme with an NAD^+ molecule tightly bound into the active
COc1cc(/C=C/C(=O)CC(=O)/C=C/c2ccc(O)c(OC)c2)ccc1O [curcumin],Ki,LiGAPDH [2],59 ± 3 µM
O=C[C@H](O)COP(=O)(O)O [G3P],KSS,LiGAPDH [1]; 5 mM phosphate,2.0 ± 0.3 mM
